Source: ChEMBL document CHEMBL3217733, “Synthesis of precursors and macrocycle analogs of aerucyclamides as anti-trypanosomal agents” (Medchemcomm, 2012)

How the values were obtained:
[1] = test system: Trypanosoma brucei brucei; assay: Antitrypanosomal activity against Trypanosoma brucei brucei strain 427 assessed as growth inhibition at 25 uM; type: functional; conditions: read-out: GI
[2] = test system: Trypanosoma brucei brucei; assay: Antitrypanosomal activity against infective form of Trypanosoma brucei brucei strain 427 assessed as growth inhibition; type: functional, organism-based
[3] = Selectivity index, ratio of EC50 for mouse J774 cells to EC50 for infective form of Trypanosoma brucei brucei strain 427; type: toxicity, cell-based; conditions: read-out: Ratio EC50
[4] = test system: J774; assay: Cytotoxicity against […] mouse J774 cells after 24 hrs by WST1 assay; type: cell-based; conditions: J774, 24 h

**Q.** With `CCOC(=O)c1csc(CNC(=O)OC(C)(C)C)n1` as the molecule, how does the inhibition of growth at 25 µM [1] read?
**A.** 26.4%

**Q.** Which inhibition of growth at 25 µM [1] does the source give for `CC[C@H](C)[C@H](NC(=O)c1csc(CNC(=O)OC(C)(C)C)n1)c1nc(C(=O)OC)co1` here?
**A.** 8.1%

**Q.** With `CC[C@H](C)[C@H](NC(=O)c1csc(CNC(=O)OC(C)(C)C)n1)c1nc(C(=O)N[C@H](c2nc(C(=O)OC)co2)[C@@H](C)CC)co1` as the molecule, how does the inhibition of growth at 25 µM [1] read?
**A.** 18.3%

**Q.** For `CC[C@H](C)[C@@H]1NC(=O)c2coc(n2)[C@H]([C@@H](C)CC)NC(=O)c2csc(n2)CNC(=O)c2coc1n2`, which inhibition of growth at 25 µM [1] is on record?
**A.** 16.2%

**Q.** For `CC[C@H](C)[C@H](NC(=O)c1csc([C@@H](NC(=O)OC(C)(C)C)[C@@H](C)CC)n1)c1nc(C(=O)OC)co1`, which inhibition of growth at 25 µM [1] is on record?
**A.** 41.1%

**Q.** For `CC[C@H](C)[C@@H]1NC(=O)c2coc(n2)[C@H]([C@@H](C)CC)NC(=O)c2coc(n2)[C@H]([C@@H](C)CC)NC(=O)c2coc1n2`, which inhibition of growth at 25 µM [1] is on record?
**A.** 13.5%

**Q.** With `CC[C@H](C)[C@H](NC(=O)c1csc([C@@H](NC(=O)c2csc(CNC(=O)OC(C)(C)C)n2)[C@@H](C)CC)n1)c1nc(C(=O)OC)co1` as the molecule, how does the inhibition of growth at 25 µM [1] read?
**A.** 20.9%

**Q.** Which results are given for `CC[C@H](C)[C@@H]1NC(=O)c2csc(n2)[C@H]([C@@H](C)CC)NC(=O)c2csc(n2)CNC(=O)c2coc1n2`?
**A.** EC50 [2]: 11.4 µM; selectivity ratio [3]: 4.3; inhibition of growth at 25 µM [1]: 100%; EC50 [4]: 48.8 µM

**Q.** For `CC[C@H](C)[C@H](NC(=O)c1csc(CNC(=O)OC(C)(C)C)n1)c1nc(C(=O)OC)cs1`, which inhibition of growth at 25 µM [1] is on record?
**A.** 11.5%

**Q.** With `CC[C@H](C)[C@H](NC(=O)c1csc([C@@H](NC(=O)c2csc(CNC(=O)OC(C)(C)C)n2)[C@@H](C)CC)n1)c1nc(C(=O)OC)c(C)o1` as the molecule, how does the EC50 [2] read?
**A.** 6 µM

**Q.** What about the selectivity ratio [3] of the same molecule?
**A.** 150

**Q.** What about the inhibition of growth at 25 µM [1] of the same molecule?
**A.** 79.1%

**Q.** And the EC50 [4]?
**A.** 915 µM

**Q.** Which inhibition of growth at 25 µM [1] does the source give for `CC[C@H](C)[C@@H]1NC(=O)c2csc(n2)[C@H]([C@@H](C)CC)NC(=O)c2csc(n2)CNC(=O)c2nc1oc2C` [MACROCYCLE] here?
**A.** 41.7%

**Q.** With `CN(C)c1ccc2nc3ccc(=[N+](C)C)cc-3sc2c1` [METHYLENE BLUE CATION] as the molecule, how does the EC50 [2] read?
**A.** 0.4 µM
